# What was measured:
# Type in all cases: cell-based
# NCI-H226 cells = assay: Viability assay in NCI-H226 (Yap-dependent) cells, CyQUANT; settings: Homo sapiens, NCI-H226 YAP dependent cell line, 96 hour incubation
# Description: (§1) Viability Assay in NCI-H226 (Yap-Dependent) and SW620 Yap KO (Yap Independent) Cells
# (§2) The ability of YAP-TEAD inhibitors to inhibit tumor cell growth was evaluated using two different cell lines: NCI-H226, which is a YAP dependent cell line, and SW620 cells, where YAP and TAZ were knocked out using CRISPR to generate a YAP independent cell line.
# (§3) For the assay, cells were treated in duplicates with the test compounds in a 10-point dose, 1:3 dilution steps, with the top concentration starting at 30 μM (final concentration in assay). After a 96 hour incubation at 37° C., 95% rH, and 5% CO2, a cell-permeant DNA-binding dye that stains only healthy cells (CyQUANT®, Promega) was added to the cells, allowing the quantification of cell viability.
# (§4) Cell Media: The NCI-H226 cells were cultured in the following media: RPMI 1640, +10% FBS, +1× GlutaMAX, +10 mM HEPES, +0.5% Pen/Strep. The SW620-KO cells were cultured in the following media: DMEM/F-12, +10% FBS, +1× GlutaMAX, +10 mM HEPES, +0.5% Pen/Strep.
# (§5) Reagents: The reagents used are listed below:
# (§6) Cell culture: The cells were examined using an inverted microscope to check for health, cell density, etc. To dissociate adherent cells, the monolayer of cells was washed once with pre-warmed PBS. After removing the PBS, 3 ml pre-warmed Accutase was added to a F75 flask, dispersed evenly and the flask was allowed to sit in incubator for ˜4-5 minutes.
# (§7) When a single cell suspension was obtained, 7 ml of prewarmed growth media was added and resuspended with the cells. The cell suspension was transferred to a sterile 15 ml conical centrifuge tube, and spun for 5 min at 300×g, RT. The supernatant was discarded and the pellet was resuspended in 10 ml of pre-warmed growth media.
# (§8) The total cell count was determined, and 20 μl of the desired cell number was added to each well of a 384 well plate using a Multidrop Combi. The plates were then incubated for 24 hours at 37° C., 95% rH, and 5% CO2.
# (§9) Compound treatment: 24 hours after seeding, the cells were treated with compounds.
# (§10) A 1:333 dilution of compounds, diluted in DMSO, was made to get a final concentration of 0.3% DMSO per well. To transfer the compounds to the assay plate, 120 nl was shot from Labcyte low dead volume plates to the cell plates containing 20 μl media/well with the ECHO 555 liquid handling system. After treatment, the cells were fed with 20 μl fresh pre-warmed assay media using a Multidrop combi.
# (§11) The assay plates were then incubated for 96 h at 37° C., 95% rH, and 5% CO2.
# (§12) 96 h after treatment 30 μl of CyQuant® reagent was added to the assay plates using a Multidrop combi in the dark. The plates were then incubated for 1 hour at 37° C., 95% rH and 5% CO2. Thereafter, the assay plates were removed from the incubator and allowed to equilibrate to RT for 30 min in the dark without lid. Finally, they were measured using an EnVision microplate reader with a FITC bottom read program.
# SW620 Yap KO cells = assay: Viability assay in SW620 Yap KO (Yap independent) cells, CyQUANT; settings: Homo sapiens, SW-620, SW620 YAP and TAZ knocked out (YAP independent), 96 hour incubation
# Description: as §1, §2, §3, §4, §5, §6, §7, §8, §9, §10, §11, §12
# YAP-TEAD interaction = assay: SK-HEP-1 reporter assay (8x TEAD responsive elements driving NanoLuc luciferase); settings: Homo sapiens, SK-HEP1, SK-HEP-1 cells, 24 hour incubation
# Method in brief: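 SK-HEP-1 cells carrying a stably integrated 8× TEAD-element NanoLuc reporter, seeded 24 h before dosing, were treated in duplicate with a 10-point dose series (top 30 μM final, 0.3% DMSO) for 24 h at 37°C, 5% CO2. Luciferase activity read by NanoGlo luminescence; IC50 derived from it.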
# [1] = n.d. (x) = not detectable below threshold x
# [2] = number, or n.d. (x) = not detectable below threshold x
SMILES,IC50 (NCI-H226 cells; group symbols) [µM],IC50 (SW620 Yap KO cells; [1]) [µM],IC50 (YAP-TEAD interaction; [2]) [µM],IC50 (YAP-TEAD interaction; group symbols) [µM],IC50 (SW620 Yap KO cells; group symbols) [µM],IC50 (NCI-H226 cells; printed number) [µM]
"COCCC(CO)NC(=O)c1cc2c3cn(C)nc3n(-c3ccc(C(F)(F)F)cc3)c2s1 (racemic) [Compound 63, N-(1-hydroxy-4-methoxybutan-2-yl)-4-methyl-7-[4-(trifluoromethyl)phenyl]-9-thia-4,5,7-triazatricyclo[6.3.0.0^2,6]undeca-1(8),2,5,10-tetraene-10-carboxamide]",0.001 to 0.1,> 3,> 9.5,–,–,–
"Cn1cc2c3cc(C(=O)N[C@@H](CCO)c4cncs4)sc3n(-c3ccc(C(F)(F)F)cc3)c2n1 (single isomer, unassigned) [Compound 41]",0.1 to 1,> 3,–,0.1 to 10,–,–
"Cn1cc2c3cc(C(=O)N[C@H](CCO)c4cncs4)sc3n(-c3ccc(C(F)(F)F)cc3)c2n1 (single isomer, unassigned) [Compound 42]",1 to 10,–,> 9.5,–,1 to 10,–
"COCC[C@@H](CO)NC(=O)c1cc2c3cn(C)nc3n(-c3ccc(C(F)(F)F)cc3)c2s1 (single isomer, unassigned) [Compound 59]",0.1 to 1,–,> 0.3,–,–,–
"Cn1cc2c3cc(C(=O)N=[S@@](C)(=O)CCCO)sc3n(-c3ccc(C(F)(F)F)cc3)c2n1 (single isomer, unassigned) [Compound 61]",0.1 to 1,–,> 9.5,–,–,–
"Cn1cc2c3cc(C(=O)N=[S@](C)(=O)CCCO)sc3n(-c3ccc(C(F)(F)F)cc3)c2n1 (single isomer, unassigned) [Compound 62]",0.1 to 1,> 3,> 0.3,–,–,–
"Cn1cc2c3cc(C(=O)N[C@H](CCO)c4ccccn4)sc3n(-c3ccc(C(F)(F)F)cc3)c2n1 (single isomer, unassigned) [Compound 90]",–,–,–,–,–,1.5
"Cn1ccc([C@@H](CO)NC(=O)c2cc3c4cn(C)nc4n(-c4ccc(C(F)(F)F)cc4)c3s2)n1 (single isomer, unassigned) [Compound 130]",0.001 to 0.1,> 30,–,0.01 to 0.1,–,–
"CNC(=O)c1cc2c(s1)c1cn(C)nc1n2-c1ccc(C(F)(F)F)cc1 [Compound 1, N,10-dimethyl-7-[4-(trifluoromethyl)phenyl]-3-thia-7,9,10-triazatricyclo[6.3.0.0^2,6]undeca-1(11),2(6),4,8-tetraene-4-carboxamide]",> 10,–,–,0.1 to 10,–,–
"Cn1cc2c3sc(C(=O)O)cc3n(-c3ccc(C(F)(F)F)cc3)c2n1 [Compound 2, 10-methyl-7-[4-(trifluoromethyl)phenyl]-3-thia-7,9,10-triazatricyclo[6.3.0.0^2,6]undeca-1(11),2(6),4,8-tetraene-4-carboxylic acid]",0.1 to 1,–,–,0.01 to 0.1,–,–
"Cn1nc2c3sc(C(=O)O)cc3n(-c3ccc(C(F)(F)F)cc3)c2n1 [Compound 3, 4-methyl-7-[4-(trifluoromethyl)phenyl]-11-thia-3,4,5,7-tetraazatricyclo[6.3.0.0^2,6]undeca-1(8),2,5,9-tetraene-10-carboxylic acid]",0.1 to 1,–,–,0.01 to 0.1,–,–
"Cn1nc2c3sc(C(=O)NC(CO)c4ccccn4)cc3n(-c3ccc(C(F)(F)F)cc3)c2n1 (centres unmarked) [Compound 4, N-[2-hydroxy-1-(pyridin-2-yl)ethyl]-4-methyl-7-[4-(trifluoromethyl)phenyl]-11-thia-3,4,5,7-tetraazatricyclo[6.3.0.0^2,6]undeca-1(8),2,5,9-tetraene-10-carboxamide]",1 to 10,–,–,> 10,–,–
"CNC(=O)c1cc2c(s1)c1nn(C)nc1n2-c1ccc(C(F)(F)F)cc1 [Compound 5, N,4-dimethyl-7-[4-(trifluoromethyl)phenyl]-11-thia-3,4,5,7-tetraazatricyclo[6.3.0.0^2,6]undeca-1(8),2,5,9-tetraene-10-carboxamide]",1 to 10,–,–,> 10,–,–
"Cn1cc2c3sc(C(=O)O)cc3n(-c3ccc(OC(F)F)cc3)c2n1 [Compound 10, 7-[4-(difluoromethoxy)phenyl]-10-methyl-3-thia-7,9,10-triazatricyclo[6.3.0.0^2,6]undeca-1(11),2(6),4,8-tetraene-4-carboxylic acid]",0.1 to 1,> 30,–,0.01 to 0.1,–,–
"Cn1cc2c3cc(C(=O)O)sc3n(-c3ccc(C(F)(F)F)cc3)c2n1 [Compound 19, 4-methyl-7-[4-(trifluoromethyl)phenyl]-9-thia-4,5,7-triazatricyclo[6.3.0.0^2,6]undeca-1(8),2,5,10-tetraene-10-carboxylic acid]",0.001 to 0.1,> 30,–,0.001 to 0.01,–,–
"Cn1cnc2c1c1sc(C(=O)O)cc1n2-c1ccc(C(F)(F)F)cc1 [Compound 20, 3-methyl-7-[4-(trifluoromethyl)phenyl]-11-thia-3,5,7-triazatricyclo[6.3.0.0^2,6]undeca-1(8),2(6),4,9-tetraene-10-carboxylic acid]",0.1 to 1,> 30,–,0.01 to 0.1,–,–
"CNC(=O)c1cc2c(s1)c1c(ncn1C)n2-c1ccc(C(F)(F)F)cc1 [Compound 21, N,3-dimethyl-7-[4-(trifluoromethyl)phenyl]-11-thia-3,5,7-triazatricyclo[6.3.0.0^2,6]undeca-1(8),2(6),4,9-tetraene-10-carboxamide]",0.1 to 1,–,–,0.1 to 10,1 to 10,–
"CNC(=O)c1cc2c3cn(C)nc3n(-c3ccc(C(F)(F)F)cc3)c2s1 [Compound 32, N,4-dimethyl-7-[4-(trifluoromethyl)phenyl]-9-thia-4,5,7-triazatricyclo[6.3.0.0^2,6]undeca-1(8),2,5,10-tetraene-10-carboxamide]",0.001 to 0.1,–,–,0.01 to 0.1,–,–
"Cn1cc2c3cc(C(=O)N=S(C)(C)=O)sc3n(-c3ccc(C(F)(F)F)cc3)c2n1 [Compound 34, N-[dimethyl(oxo)-λ^6-sulfanylidene]-4-methyl-7-[4-(trifluoromethyl)phenyl]-9-thia-4,5,7-triazatricyclo[6.3.0.0^2,6]undeca-1(8),2,5,10-tetraene-10-carboxamide]",0.1 to 1,–,–,0.1 to 10,–,–
"Cn1cc2c3cc(C(=O)O)sc3n([C@H]3CC[C@@H](C(F)(F)F)CC3)c2n1 [Compound 51, 4-methyl-7-[(1s,4s)-4-(trifluoromethyl)cyclohexyl]-9-thia-4,5,7-triazatricyclo[6.3.0.0^2,6]undeca-1(8),2,5,10-tetraene-10-carboxylic acid]",–,> 30,–,0.1 to 10,–,–
"Cn1cc2c3cc(C(=O)NCCOCCOCCNC(=O)OC(C)(C)C)sc3n(-c3ccc(C(F)(F)F)cc3)c2n1 [Compound 88, tert-butyl N-(2-{2-[2-({4-methyl-7-[4-(trifluoromethyl)phenyl]-9-thia-4,5,7-triazatricyclo[6.3.0.0^2,6]undeca-1(8),2,5,10-tetraen-10-yl}formamido)ethoxy]ethoxy}ethyl)carbamate]",–,–,> 30,–,–,0.088
"Cn1cc2c3cc(C(=O)O)sc3n(-c3ccc(OC(F)F)cn3)c2n1 [Compound 127, 7-[5-(difluoromethoxy)pyridin-2-yl]-4-methyl-9-thia-4,5,7-triazatricyclo[6.3.0.0^2,6]undeca-1(8),2,5,10-tetraene-10-carboxylic acid]",–,–,–,0.01 to 0.1,–,–
"C[C@H](CO)NC(=O)c1cc2c3cn(C)nc3n(-c3ccc(C(F)F)cn3)c2s1 [Compound 132, 7-[5-(difluoromethyl)pyridin-2-yl]-N-[(2R)-1-hydroxypropan-2-yl]-4-methyl-9-thia-4,5,7-triazatricyclo[6.3.0.0^2,6]undeca-1(8),2,5,10-tetraene-10-carboxamide]",–,–,> 0.3,–,–,–
Cn1cc2c3sc(C(=O)NC4CC4)cc3n(-c3ccc(C(F)(F)F)cc3)c2n1 [compound 12],–,–,–,> 10,–,–

# Reference: US20260159525A1, “TRICYCLIC HETEROCYCLES” (Merck Patent GmbH, priority 2021, published 2026)
